# How the values were obtained:
# I-κBα = assay: PIF-induced degradation of I-κBα in murine myotubes; assay type: cell-based; details: 50 μM HMB
# Description: (§1) For Western blot analysis, cytosolic protein (2 to 5 μg) obtained for the above assay were resolved on 10% SDS-PAGE and transferred to 0.45 μm nitrocellulose membrane, which had been blocked with 5% Marvel in PBS, at 4° C. overnight. The primary antibodies were used at a dilution of 1:100 (anti-actin and PKCα); 1:500 (anti-ERK1 and 2); 1:1000 (anti-20S proteasome β-subunit and I-κBα); 1:1500 (anti-20S proteasome α-subunit) or 1:5000 (anti-p42), while the secondary antibodies were used at a dilution of 1:2000. Incubation was carried out for 2 h at room temperature and development was by ECL. Loading was quantitated by actin concentration. The in vitro study described in Example III above also evaluated the effect of HMB on molecules that are key mediators in the pathway of inflammation. This experiment was conducted as described in Example III.
# p42/44 MAPK (ERK1, ERK2) = assay: PIF-induced phosphorylation of ERK 1/2 (p42/44 MAPK) in murine myotubes; assay type: cell-based
# Description: as §1, with “concentration.” for “concentration. The in vitro study described in Example III above also evaluated the effect of HMB on molecules that are key mediators in the pathway of inflammation. This experiment was conducted as described in Example III.”
# The in vitro study described in Example III above also evaluated the effect of HMB on molecules that are key mediators in the pathway of inflammation. This experiment was conducted as described in Example III.
# [1] = system: soleus muscle of mice bearing the MAC16 tumor; assay: Soleus muscle weight and protein degradation (tyrosine release) in MAC16 mice; assay type: in vivo, NMRI mice; details: EPA 0.6 g/kg, HMB 0.25 g/kg or the combination for 3 days
# Description: Pure strain male NMRI mice (average weight 25 g) were obtained from our own inbred colony and were transplanted with fragments of the MAC16 tumor s.c. into the flank by means of a trochar, selecting from donor animals with established weight loss as described in Bibby, M. C. et al. Characterization of a transplantable adenocarcinoma of the mouse colon producing cachexia in recipient animals. J. Natl. Cancer Inst., 78: 539-546, 1987. Transplanted animals were fed a rat and mouse breeding diet (Special Diet Services, Witham, United Kingdom) and water ad libitum, and weight loss was evident 10-12 days after tumor implantation. Animals just prior to the development of weight loss were randomized to receive daily either EPA (in olive oil), HMB (in PBS) or the combination as described in the figure legends administered p.o. by gavage, while control animals received either olive oil or PBS. EPA (98% as free acid) was purchased from Biomol Research Laboratories Inc., PA, USA. HMB (as the calcium salt) was obtained from Abbott Laboratories, Columbus, Ohio, USA. All groups contained a minimum of 6 mice. Tumor volume, body weight and food and water intake were monitored daily. […] Protein degradation was determined by the release of tyrosine over a 2 h period as described in […]. et al. A fluorimetric method for the estimation of tyrosine in plasma and tissues. […]
# [2] = system: 20S proteasome β-subunits; assay: Western blotting of 20S proteasome β-subunits in gastrocnemius muscle of MAC16 mice; assay type: in vivo, NMRI mice
# phospholipase A (PLA) = assay: Arachidonic acid release / PLA activation; assay type: cell-based, murine; details: mechanism statement
# Description: For measurement of arachidonic acid release, myotubes in six-well multi dishes containing 2 ml DMEM with 2% HS were labeled for 24 h with 10 μM arachidonic acid (containing 1 μCi of [^3H] arachidonate/ml) (Smith, H. et al. Effect of a cancer cachectic factor on protein synthesis/degradation in murine C2C12 myoblasts: Modulation by eicosapentaenoic acid. Cancer Res., 59: 5507-5513, 1999). Cells were then washed extensively with PBS to remove traces of unincorporated [^3H] arachidonate and either EPA or HMB was added 2 h prior to PIF. After a further 24 h 1 ml of medium was removed to determine the radioactivity released.
# [3] = system: mice bearing the MAC16 tumor; assay: Body composition analysis of mice bearing the MAC16 tumor; assay type: in vivo
# Description: Materials and animals were obtained as per Example 1.
smiles,measurement,setting,value
"CC(C)(O)CC(=O)O [HMB, beta-hydroxy-beta-methylbutyric acid]",attenuation of I-κBα degradation in the presence of PIF,I-κBα,effectively attenuate
same,attenuation of PIF-induced phosphorylation of p42/44,"p42/44 MAPK (ERK1, ERK2); 25 μM HMB",not HMB at 25 μM
same,attenuation of PIF-induced phosphorylation of p42/44,"p42/44 MAPK (ERK1, ERK2); 50 μM",completely attenuated
same,tyrosine release (total protein degradation in soleus muscle),[1],as effective as EPA
same,expression of 20S proteasome β-subunits,"[2]; HMB 0.25 g/kg, EPA 0.6 g/kg or combination, 3 days",attenuated
same,reduction of protein expression of 20S β-subunits,[2]; summary of Examples I-IV,at least 50%
same,activation of PLA or release of AA,phospholipase A (PLA),not preventing
same,Fat (%),[3]; HMB 0.125 g/kg for 5 days,3.3 ± 1.6%
same,Nonfat (%),[3]; HMB 0.125 g/kg for 5 days,31.2 ± 1.5 %
same,Water (%),[3]; HMB 0.125 g/kg for 5 days,65.5 ± 0.9%
same,Fat (%),[3]; HMB 0.25 g/kg for 5 days,4.4 ± 1.3%
same,Nonfat (%),[3]; HMB 0.25 g/kg for 5 days,29.2 ± 1.9 %
same,Water (%),[3]; HMB 0.25 g/kg for 5 days,66.5 ± 2.2%
same,Fat (%),[3]; HMB 0.5 g/kg for 5 days,3.8 ± 1.2%
same,Nonfat (%),[3]; HMB 0.5 g/kg for 5 days,29.0 ± 1.4 %
same,Water (%),[3]; HMB 0.5 g/kg for 5 days,67.2 ± 2.3%
same,adipose tissue,"[3]; HMB for 5 days, in words",without an effect
same,nonfat carcass mass,"[3]; HMB for 5 days, in words",significant increase

# From patent US8609725B2, “Method of using beta-hydroxy-beta-methylbutyrate for reducing tumor growth rate” (Abbott Laboratories, priority 2004, dated 2013)
